Experimental data as given in US10239889B1, “Pentacyclic compound” (Eisai R&D Management Co., Ltd., priority 2017, dated 2019).

Tests used:
[1] = test system: cholinergic neurons, fimbria-fornix lesioned rat model; experiment: Neuroprotective and restorative effect on cholinergic neurons using fimbria-fornix lesioned rat model (ChAT positive cells, hippocampal VAChT); assay type: in vivo; conditions: % of sham-operated group, mean±SEM; for OD in hippocampal VAChT (%) in test compound administration group: hippocampus; for Number of ChAT positive cells (%) in test compound administration group: medial septal area
Protocol: Neuroprotective and Restorative Effect on Cholinergic Neurons Usi Ng Fimbria-Fomix Lesioned Rat Model
(1) Preparation of Fimbria-Fomix Lesioned Rat Model
In this study, Sprague-Dawley male rats (Charles River Laboratories Japan, Inc.) with a body weight of about 250 to 350 g were used. The rat was anesthetized under the combination of three drugs: midazolam (2 mg/kg s.c.), medetomidine hydrochloride (0.15 mg/kg s.c.) and butorphanol tartrate (2.5 mg/kg s.c.) and fixed with a brain stereotaxis apparatus (Narishige Co., Ltd.). The cranial was exposed and a hole with 5 mm width was drilled in the skull from the median line 2 mm posterior to Bregma. A razor with 4 mm width was pierced into the Bregma in 5.5 mm depth to cut fimbria-fornmix. After hemostasis, the scalp was sutured. After the operation, the rat was brought back to the cage and recovered from the anesthesia. In the sham-operated group, a hole with 5 mm width was drilled in the skull from the median line 2 mm posterior to Bregma, but no razor was pierced.
(2) Compound Administration
The test compounds were orally administered to the rats once a day from five days to nine days after the operation (Example 1: 10 mg/kg) or from seven days to fourteen days after the operation (Example 3: 3 mg/kg). The vehicle used was 0.01 mol/L hydrochloric acid. In the sham-operated group, the vehicle was orally administered once a day similarly to the test compound administration group.
The rats were anesthetized under pentobarbital and transcardially perfused with ice-cold PBS. After the perfusion, the forebrain including the medial septal area was collected and immersed and shaken overnight with 4% paraformaldehyde. The immersion solution was replaced with 7.5% sucrose solution. It was immersed and shaken overnight in 7.5% sucrose solution, and the immersion solution was replaced with 15% sucrose solution and it was immersed and shaken overnight. The immersion solution was replaced with 30% sucrose solution and it was immersed and shaken overnight. […]
The prepared brain coronal frozen sections were stained with DAB (DAB PEROXIDASE SUBSTRATE KIT (Vector, SK-4100)) using a ChAT antibody (Santa Cruz, S.C.-20672) or a VAChT antibody (Merck Millipore, ABN100) as a primary antibody. The section image including the medial septal area or hippocampus as shown in “The mouse Brain in stereotaxic coordinates” (COMPACT THIRD EDITION, Keith B.J. Franklin & George Paxinos) was taken by an all-in-one fluorescence microscope (KEYENCE, BZ-X710) and ChAT positive cells of the medial septal area or optical density (OD) in hippocampal VAChT were measured by BZ analysis software (KEYENCE). […] Data are expressed as the mean±SEM. The differences between the vehicle-treated group and compound-treated (significant: #) was analyzed by unpaired t-test. […]

[2] = test system: human tau P301S transgenic mice; experiment: Evaluation in human tau P301S transgenic mouse: ChAT positive cells in the medial septal area; assay type: in vivo; conditions: mean±SEM
From the text: Evaluation in Human Tau P301S Transgenic Mouse
(1) Compound Administration
In this study, the test compounds were orally administered to human tau P301S transgenic mice once a day for three months from four-month-old to seven-month-old. The vehicle used was 0.01 mol/L hydrochloric acid.
At the initial day of the administration (four-month-old) and at the next day of the final administration, mice of vehicle administration group and test compound administration group were anesthetized under pentobarbital (50 mg/kg, i.p.) and perfused with PBS. After the perfusion, the forebrain including the medial septal area was collected and fixed with 4% paraformaldehyde.
(3) Preparation of Brain Coronal Frozen Section
The collected forebrain including the medial septal area was immersed and shaken overnight in 4% paraformaldehyde. […]
The prepared brain coronal frozen sections were stained with DAB (DAB PEROXIDASE SUBSTRATE KIT (Vector, SK-4100)) using a ChAT antibody (Santa Cruz, S.C.-20672) as a primary antibody. The section image including the medial septal area as shown in “The mouse Brain in stereotaxic coordinates” (COMPACT THIRD EDITION, Keith B.J. Franklin & George Paxinos) was taken by an all-in-one fluorescence microscope (KEYENCE, BZ-X710) and ChAT positive cells around the major axis of the medial septal area were counted by BZ analysis software (KEYENCE). […] Data are expressed as the mean±SEM. […]

[3] = oral 10 mg/kg once a day from five to nine days after operation
[4] = oral 3 mg/kg once a day from seven to fourteen days after operation

SMILES | OD in hippocampal VAChT (%) in test compound administration group [1, 3] | Number of ChAT positive cells (%) in test compound administration group [1, 3] [%] | Ratio (%) of number of ChAT positive cells compared to that in the initial administration ([2]; oral 10 mg/kg once a day for three months (4 to 7 months old)) | OD in hippocampal VAChT (%) in test compound administration group [1, 4] | Number of ChAT positive cells (%) in test compound administration group [1, 4] | Ratio (%) of number of ChAT positive cells compared to that in the initial administration ([2]; oral 5 mg/kg once a day for three months (4 to 7 months old))
CN1CCc2c(sc3nc4n(c(=O)c23)-c2ccc(F)cc2C(=O)N(C)C4)C1 [Example 1] | 77.1 ± 14.6^# % | 79.1 ± 15.7 | 105.0 ± 4.0^# % | – | – | –
CN1CCc2c(sc3nc4n(c(=O)c23)-c2sccc2C(=O)N(C)C4)C1 [Example 3, 5,10-dimethyl-5,6,9,10,11,12-hexahydropyrido[4″,3″:4′,5′]thieno[2′,3′:4,5]pyrimido[1,2-a]thieno[3,2-f][1,4]diazepine-4,13-dione] | – | – | – | 66.1 ± 14.2^# % | 74.1 ± 9.3^# % | 105.3 ± 4.3^# %
